Measured values taken from publication PMC10317887, “Hypoglycaemia frequency and physiological response after double or triple doses of once-weekly insulin icodec vs once-daily insulin glargine U100 in type 2 diabetes: a randomised crossover trial” (Diabetologia, 2023).
Read-outs that look alike come from different tables or passages of the source.

Columns and labels:
[1] = system: type 1 diabetes; details: cited from earlier work
Excerpt: In addition, the low insulin receptor binding affinity of icodec contributes to its long half-life by reducing the clearance rate, as insulin is mainly cleared by internalisation following binding to and activation of the insulin receptor [9, 10]. In case of excess amounts of icodec throughout the body, e.g ...

[2] = system: growth hormone; experiment: Counterregulatory hormone response: serum growth hormone (electrochemiluminescent immunoassay); format: in vivo, human; details: serum, subgroup; for Growth hormone at PGnadir, estimated geometric mean: n=19 icodec
Protocol: (§1) Plasma concentrations of glucagon were measured by an enzyme-linked immunosorbent assay (Mercodia AB, Uppsala, Sweden). Plasma concentrations of adrenaline (epinephrine) and noradrenaline (norepinephrine) were measured by liquid chromatography-mass spectrometry (Thermo Fisher Scientific, Dreieich, Germany). Serum concentrations of cortisol and growth hormone were measured by electrochemiluminescent immunoassays (Roche Diagnostics, Mannheim, Germany).

[3] = system: adrenaline (epinephrine); experiment: Counterregulatory hormone response: plasma adrenaline (LC-MS); format: in vivo, human; details: plasma, subgroup
Protocol: as §1

[4] = system: individuals with type 2 diabetes; details: in vivo
Excerpt: Safety assessments during the trial included adverse events (AEs), hypoglycaemic episodes (other than those induced), vital signs (other than those assessed during hypoglycaemia induction), electrocardiograms, physical examinations and clinical laboratory assessments (haematology, biochemistry and urinalysis).
AEs and hypoglycaemic episodes (other than those induced) during the treatment periods were summarised. The end of each treatment period was defined as 7 days after the last icodec dose and 2 days after the last glargine U100 dose. […] Hypoglycaemic episodes were classified as level 1 (PG <3.9 mmol/l and ≥3.0 mmol/l), level 2 (PG <3.0 mmol/l) and level 3 (severe cognitive impairment requiring assistance for recovery) [20].

[5] = system: individuals with type 2 diabetes; format: in vivo, human; details: for Mean PGnadir, estimated geometric mean: all participants; for Time to recovery from PGnadir to PG5.5 mmol/l, estimated geometric mean: constant i.v. glucose 5.5 mg kg^−1 min^−1; for Time to recovery from PGnadir to PG5.5 mmol/l, estimated geometric mean / Glucose needed from PGnadir to PG5.5 mmol/l, estimated geometric mean: individuals with PG <3.3 mmol/l at initiation of recovery; for Time to decline from PG5.5 mmol/l to PG3.9 mmol/l, estimated geometric mean: individuals with PG decline to <3.0 mmol/l and/or hypoglycaemia symptoms; for Time to decline from PG5.5 mmol/l to PG3.0 mmol/l, estimated geometric mean: individuals with PG decline to <3.0 mmol/l; for Mean PGnadir in the subgroup analysis: subgroup PGnadir <3.0 mmol/l and/or symptoms
Protocol: During the two treatment periods, participants received once-weekly icodec for 6 weeks or once-daily glargine U100 for 11 days in randomised order. […] Treatment periods were separated by 35–49 days of washout following icodec and 4–11 days of washout following glargine U100. Icodec (4200 nmol/ml; Novo Nordisk, Bagsværd, Denmark) was administered s.c. in the left thigh at 20:00 hours by qualified site staff using a NovoPen 4 pen injector (Novo Nordisk). […] At the start of week 1, a one-time additional 100% icodec dose was administered to accelerate time to steady state, followed by a normal dose at week 2, a double dose at week 3 (prior to hypoglycaemia induction), no dose at week 4 (due to the double dose given the week before), a normal dose at week 5, and a triple dose at week 6 (prior to hypoglycaemia induction). Insulin glargine U100 (100 U/ml [600 nmol/ml]; Sanofi, Paris, France) was administered s.c. in the right thigh at 09:00 hours by qualified site staff using a SoloStar pen injector (Sanofi). A normal dose of once-daily glargine U100 was established during run in. Glargine U100 was administered at a normal dose for 3 days followed by a double dose on day 4 (prior to hypoglycaemia induction), no dose on day 5 (due to the double dose given the day before), then a normal dose for 5 days, and a triple dose on day 11 (prior to hypoglycaemia induction).
Hypoglycaemia induction was carried out during weeks 3 (double dose) and 6 (triple dose) for icodec and on days 4 (double dose) and 11 (triple dose) for glargine U100 while at steady state. To initiate hypoglycaemia induction, participants should not have experienced hypoglycaemia (PG <3.9 mmol/l) within 24 h or have any relevant medical condition that could confound the outcomes or pose unacceptable risk to the participant. Hypoglycaemia induction (Fig. 1b) was initiated at 16:00 hours 2 days after double/triple icodec dosing (44 h post dose) and on the day of double/triple glargine U100 dosing (7 h post dose). These timings were selected since they approximated the expected time of maximum glucose-lowering effect for both insulin products based on pharmacokinetic/pharmacodynamic modelling performed prior to the trial. For 7.5 h prior to hypoglycaemia induction, PG was kept at 5.5 mmol/l by variable i.v. infusion of glucose (20% wt/vol) or human soluble insulin (100 U/ml in 99.6 ml saline [154 mmol/l NaCl]). PG was measured by a Super GL2 Glucose Analyzer (Dr. Müller Gerätebau, Freital, Germany). Insulin infusion was terminated 60 min prior to hypoglycaemia induction at the latest. PG was maintained at 5.5 mmol/l±20% from 60 min to 30 min prior to hypoglycaemia induction and at 5.5 mmol/l±10% during the last 30 min prior to hypoglycaemia induction. Hypoglycaemia induction was initiated by terminating glucose infusion, thereby allowing PG to decline towards the minimum (nadir) PG target level of no less than 2.5 mmol/l. The handling of alternative scenarios, e.g. PGnadir >2.5 mmol/l, slow PG decline towards hypoglycaemia or slow recovery from hypoglycaemia, is described in electronic supplementary material (ESM) Methods. The investigator recorded if the PGnadir was <3.0 mmol/l or ≥3.0 mmol/l with hypoglycaemic symptoms. The PGnadir level was maintained for 15 min by variable i.v. glucose as needed. Subsequently, euglycaemia was restored by constant i.v. glucose (5.5 mg kg^−1 min^−1) until PG was 5.5 mmol/l, which was maintained until the next morning (between 07:00 hours and 09:00 hours) by variable i.v. glucose. During hypoglycaemia induction, participants remained fasted (except for water ad libitum) and stayed in a supine or semi-supine position (except when cognitive tests were performed). Participants stayed at the clinical site for at least 12 h following each hypoglycaemia induction experiment. […]

[6] = system: individuals with type 2 diabetes; experiment: Hypoglycaemia awareness question 'Do you feel hypo?' during hypoglycaemia induction; format: in vivo, human; details: subgroup
Protocol: Hypoglycaemia awareness was determined by asking the question, ‘Do you feel hypo?’, to the participant.

[7] = system: cortisol; experiment: Counterregulatory hormone response: serum cortisol (electrochemiluminescent immunoassay); format: in vivo, human; details: serum, subgroup; for Cortisol at PGnadir, estimated geometric mean: n=19 icodec
Protocol: as §1

[8] = system: noradrenaline (norepinephrine); experiment: Counterregulatory hormone response: plasma noradrenaline (LC-MS); format: in vivo, human; details: plasma, subgroup
Protocol: as §1

[9] = system: glucagon; experiment: Counterregulatory hormone response: plasma glucagon (ELISA); format: in vivo, human; details: plasma, subgroup
Protocol: as §1

[10] = double dose, n=17 icodec, 15 glargine U100
[11] = triple dose, n=20 icodec, 28 glargine U100
[12] = double dose, n=20 icodec, 19 glargine U100
[13] = triple dose, n=20 icodec, 29 glargine U100
[14] = double dose, n=15 icodec, 13 glargine U100
[15] = triple dose, n=18 icodec, 22 glargine U100

insulin degludec
Participants with clinically significant hypoglycaemia ([1]; type 1 diabetes, triple doses, ref [8], [24]): almost all participants

insulin detemir
Participants with clinically significant hypoglycaemia ([1]; in vivo): 78%

insulin glargine U100
Growth hormone at PG3.0 mmol/l, estimated geometric mean [2, 10]: 4.1 µg/L | Growth hormone at PGnadir, estimated geometric mean ([2]; double dose, 19 glargine U100): 3.5 µg/L | Growth hormone at PGnadir, estimated geometric mean ([2]; triple dose, 29 glargine U100): 3.5 µg/L | Growth hormone at PG3.0 mmol/l, estimated geometric mean [2, 11]: 2.4 µg/L | Adrenaline at PG3.0 mmol/l, estimated geometric mean [3, 10]: 528.3 pmol/L | Adrenaline at PGnadir, estimated geometric mean [3, 12]: 590.9 pmol/L | Adrenaline at PG3.0 mmol/l, estimated geometric mean [3, 11]: 312.2 pmol/L | Adrenaline at PGnadir, estimated geometric mean [3, 13]: 570.9 pmol/L | Participants with clinically significant hypoglycaemia ([1]; in vivo): almost all participants | AE rate [4]: 21.3 AEs per participant-year of exposure | Duration of level 2 hypoglycaemic episodes, mean±SD [4]: 37.7 ± 15.0 min | Number of AEs reported [4]: 33 AEs | Rate of clinically significant hypoglycaemic episodes (level 2, PG <3.0 mmol/l) [4]: 3.0 episodes per participant-year of exposure | Severe hypoglycaemic episodes (level 3) [4]: no severe hypoglycaemic episodes | Time to full recovery from hypoglycaemia ([5]; constant i.v. glucose infusion at 5.5 mg kg^−1 min^−1, double and triple doses): ≤ 30 min | Mean PGnadir, estimated geometric mean ([5]; double dose, n=43 icodec, 42 glargine U100): 3.3 mmol/L | Time to recovery from PGnadir to PG5.5 mmol/l, estimated geometric mean [5, 14]: 21.0 min | Glucose needed from PGnadir to PG5.5 mmol/l, estimated geometric mean [5, 14]: 111 mg/kg | Time to decline from PG5.5 mmol/l to PG3.9 mmol/l, estimated geometric mean [5, 12]: 1.1 h | Time to decline from PG5.5 mmol/l to PG3.0 mmol/l, estimated geometric mean [5, 10]: 4.5 h | Mean PGnadir in the subgroup analysis ([5]; double dose): 2.9 mmol/L | Mean PGnadir, estimated geometric mean ([5]; triple dose, n=38 icodec, 40 glargine U100): 2.9 mmol/L | Time to recovery from PGnadir to PG5.5 mmol/l, estimated geometric mean [5, 15]: 23.3 min | Glucose needed from PGnadir to PG5.5 mmol/l, estimated geometric mean [5, 15]: 115 mg/kg | Time to decline from PG5.5 mmol/l to PG3.9 mmol/l, estimated geometric mean [5, 13]: 0.7 h | Time to decline from PG5.5 mmol/l to PG3.0 mmol/l, estimated geometric mean [5, 11]: 2.2 h | Mean PGnadir in the subgroup analysis ([5]; triple dose): 2.7 mmol/L | Proportion of individuals answering 'Yes' to 'Do you feel hypo?' ([6]; double dose, at PG3.0 mmol/l, n=9/17 icodec, 2/15 glargine U100): 13.3% | Proportion of individuals answering 'Yes' to 'Do you feel hypo?' ([6]; double dose, at PGnadir, n=14/20 icodec, 10/19 glargine U100): 52.6% | Proportion of individuals answering 'Yes' to 'Do you feel hypo?' ([6]; triple dose, at PG3.0 mmol/l, n=5/20 icodec, 8/28 glargine U100): 28.6% | Proportion of individuals answering 'Yes' to 'Do you feel hypo?' ([6]; triple dose, at PGnadir, n=9/20 icodec, 15/29 glargine U100): 51.7% | Cortisol at PG3.0 mmol/l, estimated geometric mean [7, 10]: 153.8 nmol/L | Cortisol at PGnadir, estimated geometric mean ([7]; double dose, 19 glargine U100): 300.3 nmol/L | Cortisol at PGnadir, estimated geometric mean ([7]; triple dose, 29 glargine U100): 197.6 nmol/L | Cortisol at PG3.0 mmol/l, estimated geometric mean [7, 11]: 122.9 nmol/L | Noradrenaline at PG3.0 mmol/l, estimated geometric mean [8, 10]: 853.0 pmol/L | Noradrenaline at PGnadir, estimated geometric mean [8, 12]: 907.4 pmol/L | Noradrenaline at PG3.0 mmol/l, estimated geometric mean [8, 11]: 843.0 pmol/L | Noradrenaline at PGnadir, estimated geometric mean [8, 13]: 890.5 pmol/L | Glucagon at PG3.0 mmol/l, estimated geometric mean [9, 10]: 47.7 ng/L | Glucagon at PGnadir, estimated geometric mean ([9]; double dose, n=19 icodec, 19 glargine U100): 53.1 ng/L | Glucagon at PG3.0 mmol/l, estimated geometric mean [9, 11]: 51.6 ng/L | Glucagon at PGnadir, estimated geometric mean [9, 13]: 59.1 ng/L

neutral protamine Hagedorn insulin
Participants with clinically significant hypoglycaemia ([1]; in vivo): 78%
